Each molecule was assayed against T1, EphA2 (UniProt Ref: P29317) (Homo sapiens, UniProt P29317) (assay: EphA2 assay (Reaction Biology HotSpot radioactive kinase assay)). Conditions: ATP 10 μM; read-out: EphA2 potency IC50.
T1 construct: purchased Reaction Biology
Type: biochemical
Protocol: Inhibition of EphA2 (UniProt Ref: P29317) by a test compound is determined by a commercially available Reaction Biology proprietary nanoliter radioactive HotSpot^SM assay (Reaction Biology, One great valley parkway, Suite 2, Malvern Pa., 19355, USA). The principle of the assay consists of the measurement of incorporated ^33P into poly[Glu:Tyr] (4:1) (0.2 mg/mL) when the substrate is phosphorylated by the enzyme using [^33P]-γ-ATP and ATP (10 μM).
To determine the IC50, a serial dilution of compound is tested starting from 10, or 3 μM (highest dilution) with a 1/3 dilution.

T1 sequence (P29317 24-976): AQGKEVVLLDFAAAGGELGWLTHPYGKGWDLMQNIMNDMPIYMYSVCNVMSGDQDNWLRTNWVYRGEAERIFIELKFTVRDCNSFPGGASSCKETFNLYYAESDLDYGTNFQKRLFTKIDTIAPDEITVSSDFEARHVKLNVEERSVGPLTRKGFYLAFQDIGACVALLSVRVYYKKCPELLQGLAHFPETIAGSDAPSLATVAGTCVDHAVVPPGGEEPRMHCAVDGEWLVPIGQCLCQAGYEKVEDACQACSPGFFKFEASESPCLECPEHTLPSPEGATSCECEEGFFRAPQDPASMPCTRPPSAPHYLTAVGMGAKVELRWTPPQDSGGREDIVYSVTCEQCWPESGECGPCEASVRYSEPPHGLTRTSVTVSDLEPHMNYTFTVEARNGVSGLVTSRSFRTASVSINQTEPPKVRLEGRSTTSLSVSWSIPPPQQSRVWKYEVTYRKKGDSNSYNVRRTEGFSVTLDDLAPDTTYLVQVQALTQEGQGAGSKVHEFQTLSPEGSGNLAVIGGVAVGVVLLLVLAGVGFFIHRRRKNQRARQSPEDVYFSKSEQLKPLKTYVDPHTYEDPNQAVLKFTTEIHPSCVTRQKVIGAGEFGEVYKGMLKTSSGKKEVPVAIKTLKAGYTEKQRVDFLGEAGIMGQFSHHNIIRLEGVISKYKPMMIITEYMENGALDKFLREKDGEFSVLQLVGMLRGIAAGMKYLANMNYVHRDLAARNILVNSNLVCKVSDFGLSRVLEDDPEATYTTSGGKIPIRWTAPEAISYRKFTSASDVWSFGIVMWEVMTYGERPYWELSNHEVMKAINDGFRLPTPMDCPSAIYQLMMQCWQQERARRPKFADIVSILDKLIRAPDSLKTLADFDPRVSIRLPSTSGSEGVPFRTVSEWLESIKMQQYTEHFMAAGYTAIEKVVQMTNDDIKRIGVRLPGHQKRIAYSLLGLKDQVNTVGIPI

Cc1ccc(NC(=O)c2cccc(C(F)(F)F)c2)cc1-c1ccc2c(CO)n[nH]c2n1 [Compound 1, N-(3-(3-(hydroxymethyl)-1H-pyrazolo[3,4-b]pyridin-6-yl)-4-methylphenyl)-3-(trifluoromethyl)benzamide] and CCc1n[nH]c2nc(-c3cc(NC(=O)c4cc(OC)cc(C(F)(F)F)c4)ccc3C)ccc12 [Compound 33, N-[3-(3-Ethyl-1H-pyrazolo[3,4-b]pyridin-6-yl)-4-methyl-phenyl]-3-methoxy-5-trifluoromethyl-benzamide] fall in the same range of IC50: 0.01 to 25 nM for the first, 0.01 to 25 nM for the second.

CCc1n[nH]c2nc(-c3cc(NC(=O)c4cc(C)cc(OC)c4)ccc3C)ccc12 [Compound 19, N-[3-(3-Ethyl-1H-pyrazolo[3,4-b]pyridin-6-yl)-4-methyl-phenyl]-3-methoxy-5-methyl-benzamide] and CCc1n[nH]c2nc(-c3cc(NC(=O)c4cc(C)cc(OCCO)c4)ccc3C)ccc12 [Compound 23, N-[3-(3-Ethyl-1H-pyrazolo[3,4-b]pyridin-6-yl)-4-methyl-phenyl]-3-(2-hydroxy-ethoxy)-5-methyl-benzamide] fall in the same range of IC50: 0.01 to 25 nM for the first, 0.01 to 25 nM for the second.

First: CCc1n[nH]c2nc(-c3cc(NC(=O)c4cc(OC)cc(OC)c4)ccc3Cl)ccc12 [Compound 22, N-[4-Chloro-3-(3-ethyl-1H-pyrazolo[3,4-b]pyridin-6-yl)-phenyl]-3,5-dimethoxy-benzamide]
Second: CCc1ccc(NC(=O)c2cc(OC)cc(OC)c2)cc1-c1ccc2c(CC)n[nH]c2n1 [Compound 32, N-[4-Ethyl-3-(3-ethyl-1H-pyrazolo[3,4-b]pyridin-6-yl)-phenyl]-3,5-dimethoxy-benzamide]
The IC50 of the first is lower: 25 to 50 nM for the first, 50 to 100 nM for the second.

CCc1n[nH]c2nc(-c3cc(NC(=O)c4cc(C)cc(OCCN(C)C)c4)ccc3C)ccc12 [Compound 25, 3-(2-Dimethylamino-ethoxy)-N-[3-(3-ethyl-1H-pyrazolo[3,4-b]pyridin-6-yl)-4-methyl-phenyl]-5-methyl-benzamide] and CCc1n[nH]c2nc(-c3cc(NC(=O)c4cc(OC)cc(OCCN)c4)ccc3C)ccc12 [Compound 39, 3-(2-amino-ethoxy)-N-[3-(3-ethyl-1H-pyrazolo[3,4-b]pyrin-6-yl)-4-methylphenyl]-5-methoxybenzamide] fall in the same range of IC50: 0.01 to 25 nM for the first, 0.01 to 25 nM for the second.

First: CCc1n[nH]c2nc(-c3cc(NC(=O)c4cc(N(C)C)cc(C(F)(F)F)c4)ccc3C)ccc12 [Compound 26, 3-Dimethylamino-N-[3-(3-ethyl-1H-pyrazolo[3,4-b]pyridin-6-yl)-4-methyl-phenyl]-5-trifluoromethyl-benzamide]
Second: CCc1n[nH]c2nc(-c3cc(NC(=O)c4cc(OC)cc(C5CC5)c4)ccc3C)ccc12 [Compound 51, 3-Cyclopropyl-N-[3-(3-ethyl-1H-pyrazolo[3,4-b]pyridin-6-yl)-4-methyl-phenyl]-5-methoxy-benzamide]
The IC50 of the first is higher: 50 to 100 nM for the first, 0.01 to 25 nM for the second. The second is the more potent here.

CCc1n[nH]c2nc(-c3cc(NC(=O)c4cc(OC)cc(OCCN5CCOCC5)c4)ccc3C)ccc12 [Compound 41, N-[3-(3-Ethyl-1H-pyrazolo[3,4-b]pyridin-6-yl)-4-methyl-phenyl]-3-methoxy-5-(2-morpholin-4-yl-ethoxy)-benzamide] and CCc1n[nH]c2nc(-c3cc(NC(=O)c4cc(OCCN5CCOCC5)cc(C5CC5)c4)cnc3C)ccc12 [Compound 43, 3-Cyclopropyl-N-[5-(3-ethyl-1H-pyrazolo[3,4-b]pyridin-6-yl)-6-methyl-pyridin-3-yl]-5-(2-morpholin-4-yl-ethoxy)-benzamide] fall in the same range of IC50: 0.01 to 25 nM for the first, 0.01 to 25 nM for the second.

Compared with CCc1n[nH]c2nc(-c3cc(NC(=O)c4cc(OC)cc(OCCN)c4)cnc3C)ccc12 [Compound 44, 3-(2-Amino-ethoxy)-N-[5-(3-ethyl-1H-pyrazolo[3,4-b]pyridin-6-yl)-6-methyl-pyridin-3-yl]-5-methoxy-benzamide], Cc1cc(C)cc(C(=O)Nc2cnc(C)c(-c3ccc4c(C)n[nH]c4n3)c2)c1 [Compound 52, 3,5-Dimethyl-N-[6-methyl-5-(3-methyl-1H-pyrazolo[3,4-b]pyridin-6-yl)-pyridin-3-yl]-benzamide] is lower in IC50: 50 to 100 nM for the first, 0.01 to 25 nM for the second.

Compared with COc1cc(OC)cc(C(=O)Nc2ccc(C)c(-c3ccc4c([C@@H](C)O)n[nH]c4n3)c2)c1 [Compound 48, N-{3-[3-((R)-1-Hydroxy-ethyl)-1H-pyrazolo[3,4-b]pyridin-6-yl]-4-methyl-phenyl}-3,5-dimethoxy-benzamide], Cc1cc(C)cc(C(=O)Nc2ccc(C)c(-c3ccc4c(C(C)O)n[nH]c4n3)c2)c1 (stereo not drawn) [Compound 54, N-{3-[3-(1-Hydroxy-ethyl)-1H-pyrazolo[3,4-b]pyridin-6-yl]-4-methyl-phenyl}-3,5-dimethyl-benzamide] is lower in IC50: 25 to 50 nM for the first, 0.01 to 25 nM for the second. The second is the more potent here.

In the case of Cc1ncc(NC(=O)c2cccc(C(F)(F)F)c2)cc1-c1ccc2c(C)n[nH]c2n1 [Compound 53, N-[6-Methyl-5-(3-methyl-1H-pyrazolo[3,4-b]pyridin-6-yl)-pyridin-3-yl]-3-trifluoromethyl-benzamide], the IC50 is reported as 0.01 to 25 nM.

Each molecule was assayed against T2, Recombinant EphA7 (Homo sapiens, UniProt Q15375) (assay: EphA7 assay (33P incorporation into poly GT, filter plate)). Conditions: EphA7 potency; 0.15 μM ATP; read-out: IC50.
T2 construct: purchased Carna 08-126
Type: biochemical
Protocol: The principle of the assay consists of the measurement of incorporated ^33P into the substrate poly GT when phosphorylated by the enzyme EphA7 using [^33P]-γ-ATP and ATP. Unincorporated ^33P is removed by loading the samples on a filter plate (using a harvester, Perkin Elmer) and 6 subsequent washing steps. ^33P incorporated in polyGT is measured on a Topcount after addition of microscint to the filter plates (Perkin Elmer).
Recombinant EphA7 (Carna Cat#08-126, 2 ng per well) was incubated with 0.1 mg/mL Poly(Glu,Tyr)sodium salt (4:1), MW 20 000-50 000 (Sigma catalog number P0275) in kinase reaction buffer (10 mM MOPS pH 7.2, 5 mM DTT, 0.01% Triton-X100, 5 mM MnCl2, 0.5 mM Na3VO4, 5 mM beta-glycerolphosphate), 0.15 μM non-radioactive ATP, 0.125 μCi/25 μl ^33P-gamma-ATP (Perkin Elmer, catalog number NEG602K) final concentrations with or without 5 μL containing test compound or vehicle (DMSO, 1% final concentration), in a total volume of 25 μL, in a polypropylene 96-well plate (Greiner, V-bottom). After 90 min at 30° C., reactions were stopped by adding of 25 μL/well of 150 mM phosphoric acid. All of the terminated kinase reaction was transferred to prewashed (75 mM phosphoric acid) 96 well filter plates (Perkin Elmer catalog number 6005177) using a cell harvester (Perkin Elmer). Plates were washed 6 times with 300 μL per well of a 75 mM phosphoric acid solution and the bottom of the plates was sealed. 40 μL/well of Microscint-20 was added, the top of the plates was sealed and readout was performed using the Topcount (Perkin Elmer). The ability of a test compound to inhibit the kinase activity was determined using counts per minutes (cpm) measured by the Topcount as:
Cpm (cpd): cpm determined for sample with test compound present
Cpm (control): cpm determined for sample with positive control inhibitor (10 μM staurosporine)
Cpm (vehicle): cpm determined in the presence of vehicle (1% DMSO)
Dose dilution series were prepared for the compounds enabling the testing of dose-response effects in the EphA7 assay and the calculation of the IC50 for each compound. Each compound was routinely tested at concentration of 20 μM followed by a 1/5 serial dilution, 10 points in a final concentration of 1% DMSO. When potency of compound series increased, more dilutions may be prepared and/or the top concentration may be lowered (e.g. 5 μM, 1 μM).

T2 sequence (Q15375 579-998 limits assumed): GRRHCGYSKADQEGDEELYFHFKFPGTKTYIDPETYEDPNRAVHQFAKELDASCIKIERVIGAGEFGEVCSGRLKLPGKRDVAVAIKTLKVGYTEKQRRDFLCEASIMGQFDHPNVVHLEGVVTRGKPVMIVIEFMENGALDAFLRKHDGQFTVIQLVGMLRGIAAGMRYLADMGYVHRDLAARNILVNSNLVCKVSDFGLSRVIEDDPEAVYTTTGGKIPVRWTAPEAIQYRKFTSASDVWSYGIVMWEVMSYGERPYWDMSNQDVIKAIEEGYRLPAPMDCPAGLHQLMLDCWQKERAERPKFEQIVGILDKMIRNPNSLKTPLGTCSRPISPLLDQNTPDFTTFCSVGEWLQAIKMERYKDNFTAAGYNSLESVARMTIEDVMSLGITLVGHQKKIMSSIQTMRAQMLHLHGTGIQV

Work on CCc1n[nH]c2nc(-c3cc(NC(=O)c4cc(OCCN5CCOCC5)cc(C5CC5)c4)cnc3C)ccc12 [Compound 43, 3-Cyclopropyl-N-[5-(3-ethyl-1H-pyrazolo[3,4-b]pyridin-6-yl)-6-methyl-pyridin-3-yl]-5-(2-morpholin-4-yl-ethoxy)-benzamide] yielded an IC50 of 0.01 to 250 nM.

From patent US9062051B2, “Compounds and pharmaceutical compositions thereof for the treatment of proliferative disorders” (GALAPAGOS NV, priority 2014, dated 2015)
